Results published in paper PMC8145938, “Triphenilphosphonium Analogs of Chloramphenicol as Dual-Acting Antimicrobial and Antiproliferating Agents” (Antibiotics, 2021).

Experiments:
A549 = test: MTT assay growth inhibition; format: cell-based, human; details: Homo sapiens, A549; MTT, 72 h; read-out: 50% growth inhibition concentration (GI50)
Experimental: (§1) The cytotoxicity of the tested substances was tested using the MTT (3-(4,5-dimethylthiazol-2-yl)-2,5-diphenyltetrazolium bromide) assay, with some modifications, and 2500 cells per well for the MCF7, HEK293T, and A549 cell lines or 4000 cells per well for the VA-13 cell line were plated in 135 µL of DMEM-F12 media (Gibco, Waltham, MA, USA) in a 96-well plate and incubated in the 5% CO2 incubator for first 16 h, without treatment. Then, 15 µL of media-DMSO solutions of the tested substances was added to the cells (the final DMSO concentrations in the media were 1% or less) and treated cells for 72 h with 25 nM–50 µM (eight dilutions) of our substances (triplicate each), and serial DMSO dilutions and doxorubicin were used as controls. The MTT reagent (Paneco LLC, Moscow, Russia) was then added to cells to a final concentration of 0.5 g/L (10× stock solution in PBS was used) and incubated for 2.5 h at 37 °C in the incubator under an atmosphere of 5% CO2. The MTT solution was then discarded, and 140 µL of DMSO (PharmaMed LLC, Krasnodarsky Krai, Russia) was added. The plates were swayed on a shaker (60 rpm) to dissolve the formazan. The absorbance was measured using a microplate reader (VICTOR X5 Light Plate Reader, PerkinElmer, Waltham, MA, USA) at a wavelength of 565 nm (in order to measure formazan concentration). The results were used to construct a dose-response graph and to estimate the CC50 value.

E. coli ∆tolC = test: MIC determination, broth microdilution; format: cell-based; details: Escherichia coli
Experimental: (§2) E. coli ∆tolC CHL-resistant strain harboring plasmid encoding for chloramphenicol acetyltransferase (cat) (pCA24N-LacZ) and the control E. coli ∆tolC strain was used to evaluate the inhibitory effect of the compounds. CHL-resistant strains of B. subtilis pHT01-cat and B. subtilis pHT01-cfr were prepared by means of a transformation of a B. subtilis 168 strain with plasmids harboring the cat and cfr genes (chloramphenicol-florfenicol resistance) gene. The cfr gene encodes for the methyltransferase, which catalyzes the methylation of […] in the 23S rRNA and causes resistance to a variety of ribosome-targeting antibiotics that bind in the A site of the bacterial ribosome.
(§3) A standard laboratory strain of E. coli JW5503, with the deletion of the tolC gene, referred to here as the ∆tolC strain, was used to obtain the ∆tolC pCA24N-LacZ strain by means of transformation with the plasmid pCA24N-LacZ-harboring chloramphenicol acetyltransferase (cat) gene.
(§4) The MICs for CAM-Cn-TPP and Cn-TPP were determined by Mueller-Hinton broth microdilution, as recommended by CLSI in the Methods for Dilution Antimicrobial Susceptibility Tests for Bacteria that Grow Aerobically, Approved Standard, 9th ed., CLSI document M07-A9, using in-house-prepared panels. The compounds were diluted in a 96-well microtiter plate to final concentrations ranging from 0.5 to 360 μM in a 250-µL aliquot of the bacterial suspension, followed by incubation at 37 °C or 30 °C for 18 h. […] The bacterial growth was observed visually alongside OD measurements. The experiments were carried out in triplicate.

E. coli ∆tolC-CAT = test: MIC determination, broth microdilution; format: cell-based; details: Escherichia coli
Experimental: as §2, §3, §4

VA13 = test: MTT assay growth inhibition; format: cell-based; details: VA-13, 72 h, read-out: 50% growth inhibition concentration (GI50)
Experimental: as §1

MCF7 = test: MTT assay growth inhibition; format: cell-based; details: Homo sapiens, 72 h, read-out: 50% growth inhibition concentration (GI50)
Experimental: as §1

HEK293T = test: MTT assay growth inhibition; format: cell-based; details: Homo sapiens, HEK-293T, 72 h, read-out: 50% growth inhibition concentration (GI50)
Experimental: as §1

Bacillus subtilis = test: MIC determination, broth microdilution; format: cell-based
Text: (§5) Standard laboratory strains of Bacillus subtilis subs. subtilis Cohn 1872, stains BR151, and 168, Staphylococcus aureus subsp. aureus Rosenbach 1884 strains JCM 2151 and entry MC#144 (from the Microorganisms Collection of the Moscow State University), Listeria monocytogenes Pirie 1940, Mycobacterium smegmatis Lehmann and Neumann 1899 (MC#377), and Escherichia coli Castellani and Chalmers 1919, strain JW5503 (with the deletion of tolC gene), which are resistant to the chloramphenicol strains, J53rif, C600rif/pIB55-1, C600rif/pIP162-1, and C600recA naI, were used.
as §4

Mycobacterium smegmatis = test: MIC determination, broth microdilution; format: cell-based; details: Mycolicibacterium smegmatis
Text: as §5, §4

Escherichia coli J53rif = test: MIC determination, CHL resistant E. coli strains; format: cell-based
Text: as §5, §4

[1] = test system: Escherichia coli C600rif/pIP162-1; test: MIC determination, CHL resistant E. coli strains; format: cell-based
Text: as §5, §4

[2] = test system: Escherichia coli C600recA naI; test: MIC determination, CHL resistant E. coli strains; format: cell-based; details: C600RECANAI
Text: as §5, §4

[3] = test system: Escherichia coli C600rif/pIB55-1; test: MIC determination, CHL resistant E. coli strains; format: cell-based
Text: as §5, §4

[4] = test system: E. coli BW25113 ΔtolC pDualrep2 reporter strain; test: pDualrep2 double fluorescent reporter assay on agar plate; format: cell-based; details: for inhibition of cell growth (inhibition zone) of the reporter strain: 10 mM, 1.5 μL spotted on agar lawn; for induction of reporters (Katushka2S: ribosome stalling; RFP: DNA damage): compound spotted on agar lawn, overnight 37 °C
Text: Next, we tested the effects of CAM-C10-TPP and CAM-C14-TPP in bacterial cells using an E. coli ∆tolC-based reporter system, which is designed to screen inhibitors targeting either protein synthesis or DNA replication. In this reporter system, the gene of the far-red fluorescent protein, katushka2S, is inserted downstream of the genetically modified tryptophan attenuator, making it possible to express Katushka2S only upon exposure to ribosome-stalling compounds (Figure 2B, CHL and ERY, red pseudocolor rings).
Reporter strain […] [71] ΔtolC (BW25113) pDualrep2 was used, as previously described. The tested antibiotics, CAM-C10-TPP (10 mM, 1.5 μL), CAM-C14-TPP (10 mM, 1.5 μL), C10-TPP (10 mM, 1.5 μL), C14-TPP (10 mM, 1.5 μL), CAM (10 mM, 1.5 μL), CAM-Ac (10 mM, 1.5 μL), chloramphenicol (CHL, 2 mM, 1 μL), erythromycin (Ery, 7 mM, 1 μL), and levofloxacin (Lev, 70 nM, 1 μL), were applied to an agar plate that already contained a lawn of the reporter strain. After being incubated overnight at 37 °C, the plate was scanned by ChemiDoc (Bio-Rad) in the modes, “Cy3-blot” for RFP and “Cy5-blot” for Katushka2S.

Listeria monocytogenes = test: MIC determination, broth microdilution; format: cell-based
Text: as §5
(§6) S. aureus was grown in Bacto Tryptic Soy Broth, L. monocytogenes in Brain Heart Infusion Broth, and E. coli in LB. Bacterial cells were grown at 30 °C or 37 °C in the appropriate medium at a 140 rpm shaking frequency.
as §4

Staphylococcus aureus = test: MIC determination, broth microdilution; format: cell-based
Text: as §5, §6, §4

B. subtilis pHT01-cat = test: MIC determination, broth microdilution; format: cell-based; details: Bacillus subtilis, PHT01CAT
Experimental: as §2
(§7) A standard laboratory strain of B. subtilis 168 was used to obtain the CHL-resistant strains, B. subtilis pHT01-CAT and B. subtilis pHT01-cfr, by means of transformation with the corresponding plasmids. Competent cell preparation and transformation procedures were conducted, as reported in [74, 75]. The desired colonies were selected at 10 µg/mL of CHL for B. subtilis pHT01 and 5 µg/mL or 3.2 µg/mL of CHL for B. subtilis pHT01-cfr.
as §4

B. subtilis pHT01-cfr = test: MIC determination, broth microdilution; format: cell-based; details: Bacillus subtilis, PHT01CFR
Experimental: as §2, §7, §4

Compound | GI50 (A549) [nM] | MIC (E. coli ∆tolC) [µM] | MIC (E. coli ∆tolC-CAT) [µM] | GI50 (VA13) [nM] | GI50 (MCF7) [nM] | GI50 (HEK293T) [nM] | MIC (Bacillus subtilis) [µM] | MIC (Mycobacterium smegmatis) [µM] | MIC (Escherichia coli J53rif) [µM] | MIC [1] [µM] | MIC [2] [µM] | MIC [3] [µM] | inhibition of cell growth (inhibition zone) of the reporter strain [4] | induction of reporters (Katushka2S: ribosome stalling; RFP: DNA damage) [4] | MIC (Listeria monocytogenes) [µM] | MIC (Staphylococcus aureus) [µM] | MIC (B. subtilis pHT01-cat) [µM] | MIC (B. subtilis pHT01-cfr) [µM]
CCCCCCCCCC[P+](c1ccccc1)(c1ccccc1)c1ccccc1 [C10-TPP, decyl(triphenyl)phosphonium bromide] | 70 ± 10 | 3 | 3 | 270 ± 50 | 210 ± 30 | 80 ± 10 | 2 | < 2 | 110 | 93 | 136 | 67 | inhibit bacterial cell growth | do not induce either of the two reporters | 5 | 2 | 1.6 | 0.8
CCCCCCCCCCCCCC[P+](c1ccccc1)(c1ccccc1)c1ccccc1 [C14-TPP, tetradecyl(triphenyl)phosphonium bromide] | 25 ± 9 | 1.6 | 6 | 70 ± 50 | 20 ± 10 | 30 ± 20 | 8 | 4 |  |  |  |  | inhibit bacterial cell growth | do not induce either of the two reporters | 2 | 1.6 | 1.6 | 0.8
CC(=O)N[C@H](CO)[C@H](O)c1ccc([N+](=O)[O-])cc1 [CAM-Ac, N-acetyl-chloramphenicol amine] |  |  |  |  |  |  |  |  |  |  |  |  |  | neither the induction of either of the two reporters |  |  |  | 
COc1cccc2c1C(=O)c1c(O)c3c(c(O)c1C2=O)C[C@@](O)(C(=O)CO)C[C@@H]3O[C@H]1C[C@H](N)[C@H](O)[C@H](C)O1 [Doxorubicin, doxorubicin] | 40 ± 10 |  |  | 180 ± 40 | 40 ± 10 | 7 ± 1 |  |  |  |  |  |  |  |  |  |  |  | 
CC[C@H]1OC(=O)[C@H](C)[C@@H](O[C@H]2C[C@@](C)(OC)[C@@H](O)[C@H](C)O2)[C@H](C)[C@@H](O[C@@H]2O[C@H](C)C[C@H](N(C)C)[C@H]2O)[C@](C)(O)C[C@@H](C)C(=O)[C@H](C)[C@@H](O)[C@]1(C)O [ERY, erythromycin] |  |  |  |  |  |  |  |  |  |  |  |  |  | red pseudocolor rings are observed due to the expression of the fluorescent protein, Katushka2S (but not RFP) |  |  |  | 
C[C@H]1COc2c(N3CCN(C)CC3)c(F)cc3c(=O)c(C(=O)O)cn1c23 [LEV, levofloxacin] |  |  |  |  |  |  |  |  |  |  |  |  |  | green pseudocolored rings |  |  |  | 
